US20240034733A1, “KRAS G12D INHIBITORS” (Mirati Therapeutics, Inc., priority 2020, published 2024)

Assays:
[1] = biological target: T1, GDP-loaded recombinant human KRAS G12D (Homo sapiens, UniProt P01116, G12D); test: KRas G12D Binding Assay (TR-FRET displacement of Cy5 labelled tracer); conditions: 60 minute incubation at 22° C.
T1 construct: corresponding to amino acids 1:169, produced at Array BioPharma; biotin (biotinylated); made in house
Procedure: This Example illustrates that exemplary compounds of the present invention bind to KRas G12D and are capable of displacing a labeled tracer ligand occupying the KRas G12D binding site.
The ability of a compound to bind to KRAS G12D was measured using a TR-FRET displacement assay. Biotinylated GDP-loaded recombinant human KRAS G12D (corresponding to amino acids 1:169, produced at Array BioPharma) was incubated with a custom-made Cy5 labelled tracer, europium labelled streptavidin and compound (2% DMSO final) in buffer (50 mM HEPES [pH 7.5], 5 mM MgCl2, 0.005% Tween-20 & 1 mM DTT). After a 60 minute incubation at 22° C., the reaction was measured using a PerkinElmer EnVision multimode plate reader via TR-FRET dual wavelength detection, and the percent of control (POC) calculated using a ratiometric emission factor. […] The POC values were fit to a 4-parameter logistic curve and the IC50 value was determined as the concentration where the curve crosses 50 POC.

[2] = tested on: KRas G12D-mediated phosphorylation of ERK; test: Inhibition of KRas G12D-mediated phosphorylation of ERK in AGS cells; type: cell-based; conditions: Homo sapiens; AGS cells expressing G12D, 3 hours, phospho-ERK normalized to GAPDH
Procedure: AGS cells (ATCC CRL-1739) expressing G12D were grown in DMEM medium supplemented with 10% fetal bovine serum, 10 mM HEPES, and Penicillin/Streptomycin. Cells were plated in tissue culture treated 96 well plates at a density of 40,000 cells/well and allowed to attach for 12-14 hours. Diluted compounds were then added in a final concentration of 0.5% DMSO. After 3 hours, the medium was removed, 150 μl of 4.0% formaldehyde was added and the plates incubated at room temperature for 20 minutes. The plates were washed with PBS, and permeabilized with 150p of ice cold 100% methanol for 10 minutes. Non-specific antibody binding to the plates was blocked using 100 μL Licor blocking buffer (Li-Cor Biotechnology, Lincoln NE) for 1 hour at room temperature.
The amount of phosho-ERK was determined using an antibody specific for the phosphorylated form of ERK and compared to the amount of GAPDH. Primary antibodies used for the detection were added as follows: Phospho-ERK (Cell Signaling cs-9101) diluted 1:500 and GAPDH (Millipore MAB374) diluted 1:5000 in Licor block+0.05% Tween 20. The plates were incubated for 2 hours at room temperature. The plates were washed with PBS+0.05% Tween 20.
Secondary antibodies used to visualize primary antibodies were added as follows: Anti-rabbit-680 diluted 1:1000 and Anti-mouse-800 diluted 1:1000 both in Licor block+0.05% Tween20, and were incubated for 1 hour at room temperature. The plates were washed with PBS +0.05% Tween 20. A 100 μl aliquot of PBS was added to each well and the plates were read on a Li-Cor Odyssey CLX plate reader phospho-ERK (Thr202/Tyr204) signal was normalized to the GAPDH signal for each well and percent of DMSO control values were calculated. IC50 values were generated using a 4-parameter fit of the dose response curve

T1 sequence (P01116 1-169 isoform P01116-2 G12D): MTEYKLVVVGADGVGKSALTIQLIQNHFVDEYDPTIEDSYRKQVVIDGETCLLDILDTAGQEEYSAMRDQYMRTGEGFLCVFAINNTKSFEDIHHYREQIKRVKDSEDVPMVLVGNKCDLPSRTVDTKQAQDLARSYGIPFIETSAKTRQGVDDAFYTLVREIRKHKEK

| Structure (SMILES) | IC50 [1] [nM] | IC50 [2] [nM] |
| --- | --- | --- |
| Oc1cc(-c2ccc3c(N4CC5CCC(C4)N5)nc(OCC45CCCN4C[C@H](F)C5)nc3c2F)c2c(Cl)cccc2c1 (mixture of isomers) [Example 5, 4-(4-((1R,5S)-3,8-diazabicyclo[3.2.1]octan-3-yl)-8-fluoro-2-(((2R,7aS)-2-fluorotetrahydro-1H-pyrrolizin-7a(5H)-yl)methoxy)quinazolin-7-yl)-5-chloronaphthalen-2-ol] | 1.4 | 42 |
| Oc1cccc(F)c1-c1c(Cl)cc2c(N3CC4CCC(C3)N4)nc(OCC34CCCN3C[C@H](F)C4)nc2c1F (mixture of isomers) [Example 6, 2-(4-((1R,5S)-3,8-diazabicyclo[3.2.1]octan-3-yl)-6-chloro-8-fluoro-2-(((2R,7aS)-2-fluorotetrahydro-1H-pyrrolizin-7a(5H)-yl)methoxy)quinazolin-7-yl)-3-fluorophenol] | 3.5 | 1800 |
| N#Cc1ccccc1Oc1cc2c(N3CC4CCC(C3)N4)nc(OCC34CCCN3C[C@H](F)C4)nc2cc1-c1cc(O)cc2ccccc12 (mixture of isomers) [Example 22, 2-((4-((1R,5R)-3,8-diazabicyclo[3.2.1]octan-3-yl)-2-(((2R,7aS)-2-fluorotetrahydro-1H-pyrrolizin-7a(5H)-yl)methoxy)-7-(3-hydroxynaphthalen-1-yl)quinazolin-6-yl)oxy)benzonitrile] | 1.7 | 140 |
| N#Cc1ccccc1Oc1cc2c(N3CC4CCC(C3)N4)nc(OCC34CCCN3C[C@H](F)C4)nc2c(F)c1-c1cc(O)cc2ccccc12 (mixture of isomers) [Example 27, 2-((4-((1R,5S)-3,8-diazabicyclo[3.2.1]octan-3-yl)-8-fluoro-2-(((2R,7aS)-2-fluorotetrahydro-1H-pyrrolizin-7a(5H)-yl)methoxy)-7-(3-hydroxynaphthalen-1-yl)quinazolin-6-yl)oxy)benzonitrile] | 3.6 | 44 |
| Oc1cc(-c2ccc3c(N4CC5CCC(C4)N5)nc(OCC45CCCN4C[C@H](F)C5)nc3c2F)c2ccccc2c1 (mixture of isomers) [Example 28, 4-(4-((1R,5S)-3,8-diazabicyclo[3.2.1]octan-3-yl)-8-fluoro-2-(((2R,7aS)-2-fluorotetrahydro-1H-pyrrolizin-7a(5H)-yl)methoxy)quinazolin-7-yl)naphthalen-2-ol] | 0.6 | 171 |
| CN1CCC[C@H]1COc1nc(N2CC3CCC(C2)N3)c2cc(Oc3cccnc3)c(-c3cc(O)cc4ccccc34)cc2n1 [Example 1] | 7 | 8390 |
| Oc1cc(-c2ccc3c(N4C[C@H]5CC[C@@H](C4)N5)nc(OCC45CCCN4CCC5)nc3c2F)c2ccccc2c1 [Example 3, 4-(4-((1R,5S)-3,8-diazabicyclo[3.2.1]octan-3-yl)-8-fluoro-2-((tetrahydro-1H-pyrrolizin-7a(5H)-yl)methoxy)quinazolin-7-yl)naphthalen-2-ol] | 0.5 | 95 |
| Oc1cc(-c2ccc3c(N4C[C@H]5CC[C@@H](C4)N5)nc(OCC45CCCN4CCC5)nc3c2F)c2c(Cl)cccc2c1 [Example 4, 4-(4-((1R,5S)-3,8-diazabicyclo[3.2.1]octan-3-yl)-8-fluoro-2-((tetrahydro-1H-pyrrolizin-7a(5H)-yl)methoxy)quinazolin-7-yl)-5-chloronaphthalen-2-ol] | 0.7 | 21 |
| CN1CCC[C@H]1COc1nc(N2CCN(CCCl)CC2)c2ccc(-c3cc(O)cc4ccccc34)c(F)c2n1 [Example 9, (S)-4-(4-(4-(2-chloroethyl)piperazin-1-yl)-8-fluoro-2-((1-methylpyrrolidin-2-yl)methoxy)quinazolin-7-yl)naphthalen-2-ol] | 187 | 6790 |
| COc1ccc(F)c(Oc2cc3c(N4C[C@H]5CC[C@@H](C4)N5)nc(OC[C@@H]4CCCN4C)nc3cc2-c2cc(O)cc3ccccc23)c1 [Example 17, 4-(4-((1R,5S)-3,8-diazabicyclo[3.2.1]octan-3-yl)-6-(2-fluoro-5-methoxyphenoxy)-2-(((S)-1-methylpyrrolidin-2-yl)methoxy)quinazolin-7-yl)naphthalen-2-ol bis(2,2,2-trifluoroacetate)] | 8 | 5560 |
| COc1ccc(Oc2cc3c(N4C[C@H]5CC[C@@H](C4)N5)nc(OC[C@@H]4CCCN4C)nc3cc2-c2cc(O)cc3ccccc23)c(Cl)c1 [Example 18, 4-(4-((1R,5S)-3,8-diazabicyclo[3.2.1]octan-3-yl)-6-(2-chloro-4-methoxyphenoxy)-2-(((S)-1-methylpyrrolidin-2-yl)methoxy)quinazolin-7-yl)naphthalen-2-ol] | 11.5 | 1370 |
| CN1CCC[C@H]1COc1nc(N2C[C@H]3CC[C@@H](C2)N3)c2cc(Oc3ccccc3Cl)c(-c3cc(O)cc4ccccc34)cc2n1 [Example 19, 4-(4-((1R,5S)-3,8-diazabicyclo[3.2.1]octan-3-yl)-6-(2-chlorophenoxy)-2-(((S)-1-methylpyrrolidin-2-yl)methoxy)quinazolin-7-yl)naphthalen-2-ol] | 1.3 | 1700 |
| CN1CCC[C@H]1COc1nc(N2C[C@H]3CC[C@@H](C2)N3)c2cc(Oc3ccccc3C#N)c(-c3cc(O)cc4ccccc34)cc2n1 [Example 20, 2-((4-((1R,5S)-3,8-diazabicyclo[3.2.1]octan-3-yl)-7-(3-hydroxynaphthalen-1-yl)-2-(((S)-1-methylpyrrolidin-2-yl)methoxy)quinazolin-6-yl)oxy)benzonitrile] | 1.6 | 2160 |
| N#Cc1ccccc1Oc1cc2c(N3C[C@H]4CC[C@@H](C3)N4)nc(OCC34CCCN3CCC4)nc2cc1-c1cc(O)cc2ccccc12 [Example 21, 2-((4-((1R,5S)-3,8-diazabicyclo[3.2.1]octan-3-yl)-7-(3-hydroxynaphthalen-1-yl)-2-((tetrahydro-1H-pyrrolizin-7a(5H)-yl)methoxy)quinazolin-6-yl)oxy)benzonitrile] | 1 | 1270 |
| Oc1cc(-c2cc3nc(OC[C@@]45CCCN4C[C@H](F)C5)nc(N4C[C@H]5CC[C@@H](C4)N5)c3cc2Oc2ccccc2Cl)c2c(Cl)cccc2c1 [Example 23, 4-(4-((1R,5S)-3,8-diazabicyclo[3.2.1]octan-3-yl)-6-(2-chlorophenoxy)-2-(((2R,7aS)-2-fluorotetrahydro-1H-pyrrolizin-7a(5H)-yl)methoxy)quinazolin-7-yl)-5-chloronaphthalen-2-ol] | 6.6 | 264 |
| CN1CCC[C@H]1COc1nc(N2C[C@H]3CC[C@@H](C2)N3)c2cc(Oc3ccccc3C#N)c(-c3cc(O)cc4ccccc34)c(F)c2n1 [Example 24, 2-((4-((1R,5S)-3,8-diazabicyclo[3.2.1]octan-3-yl)-8-fluoro-7-(3-hydroxynaphthalen-1-yl)-2-(((S)-1-methylpyrrolidin-2-yl)methoxy)quinazolin-6-yl)oxy)benzonitrile] | 1.4 | 377 |
| CN1CCC[C@H]1COc1nc(N2C[C@H]3CC[C@@H](C2)N3)c2cc(Oc3c(Cl)cccc3C#N)c(-c3cc(O)cc4ccccc34)c(F)c2n1 [Example 25, 2-((4-((1R,5S)-3,8-diazabicyclo[3.2.1]octan-3-yl)-8-fluoro-7-(3-hydroxynaphthalen-1-yl)-2-(((S)-1-methylpyrrolidin-2-yl)methoxy)quinazolin-6-yl)oxy)-3-chlorobenzonitrile] | 5.3 | 784 |
